{"source": "patent US5055479A", "about": "“Method of treating cachexia” (Sankyo Company, Limited, priority 1988, dated 1991)", "key": {"[1]": {"assay": "Acute toxicity in rats, subcutaneous injection", "conditions": "rat, in vivo, sc", "from_the_text": "(§1) All of the compounds of formula (I) employed in the present invention have shown low toxicity and high safety, with limited side effects."}, "[2]": {"test_system": "plasma lipoprotein lipase", "assay": "Enhancement of plasma lipoprotein lipase activity in mice", "assay_type": "in vivo, mice (Balb/c)", "conditions": "9 mg/kg via tail vein, 21 hours later", "protocol": "Female mice (Balb/c, 10 weeks old, n=6, i.e. the number in each test group was 6) were injected with 9 mg/kg of the test compound (Compound No. 1-19) via the tail vein. Twenty one hours later, the activities of the plasma lipoprotein lipase were determined according to Vlassara's method. [Horm. Metabol. Res., 18, 698-703(1986)].\nActivities of the plasma lipoprotein lipase in control mice receiving physiological saline were expressed as 100 and the relative value is shown in the following Table 5."}, "[3]": {"test_system": "tumor cells, adenocarcinoma C-12G", "assay": "Improving cachexia and increasing life-span of tumor bearing mice", "assay_type": "in vivo, mouse (CSF1)", "from_the_text": "A mouse cachexia model was made by inoculating 6×10^5 viable tumor cells, adenocarcinoma C-12G, subcutaneously into the right axillary region of a CSF1 mouse (8-9 weeks old, female weighing 21-24 g, n=10). The viable tumor cells were counted under a microscope after staining them with 0.4% of trypan blue (Sigma Co.).\nThe growth of this kind of tumor, inoculated subcutaneously, causes a marked Weight loss (the weight losses of mice 16-17 days after tumor inoculation were (4.0-4.5 g), piloerection and depression of emotion and finally death.\nCompound No. 1-19 (hereafter called the test compound) was suspended in saline containing 0.5% CMC (carboxymethyl cellulose) at a concentration of 4 mg/ml. The suspension was administrated orally to mice on days 1-4, 7-11, 14-24 (20 times in total) after the tumor inoculation. The status of the mice, such as weight loss. Piloerection, depression of emotion and increase in life-span, was observed.\nOn the other hand, for a control group of mice, saline solution containing 0.5% of CMC was given orally.\nIn the above, the median survival times were measured in days."}, "[4]": {"assay": "Acute toxicity in mice, intraperitoneal injection", "conditions": "mouse, in vivo, ip", "from_the_text": "as §1"}}}
{"smiles": "Cc1nc2ncnn2c2c1CCN2C(C)(C)C", "note": "[Compound 1-19, 8-t-butyl-7,8-dihydro-5-methyl-6H-pyrrolo[3,2-e][1,2,4]triazolo[1,5-a]pyrimidine]", "values": [{"measurement": "LD50", "setting": "[1]", "result": "≥ 100", "unit": "mg/kg"}, {"measurement": "lipoprotein lipase activity relative to control", "setting": "[2]; of that of the control", "result": 120, "unit": "%"}, {"measurement": "Relative activity of the lipoprotein lipase", "setting": "[2]; saline control = 100, n = 6, mean ± standard deviation, p<0.05 vs saline", "result": "120 ± 10.6"}, {"measurement": "Median Survival time", "setting": "[3]; 40 mg/kg/day orally, days 1-4, 7-11, 14-24, control 28.0", "result": 40.5, "unit": "days"}, {"measurement": "Increase in life-span (ILS)", "setting": "[3]; 40 mg/kg/day orally, days 1-4, 7-11, 14-24, vs control", "result": 45, "unit": "%"}, {"measurement": "status of the mice (weight, hair retention and emotion)", "setting": "[3]; oral administration, 20 times in total", "result": "extensive improvements in weight, hair retention and emotion"}]}
{"smiles": "Cc1ccc(CN2CCc3c(C)nc4ncnn4c32)cc1", "note": "[Compound 1-48, 7,8-dihydro-5-methyl-8-(4-methylbenzyl)-6H-pyrrolo[3,2-e][1,2,4]triazolo[1,5-a]pyrimidine]", "values": [{"measurement": "LD50", "setting": "[4]", "result": "≥ 300", "unit": "mg/kg"}]}
{"smiles": "COc1ccc(CN2CCc3c(C)nc4ncnn4c32)cc1", "note": "[Compound 1-49, 7,8-dihydro-8-(4-methoxybenzyl)-5-methyl-6H-pyrrolo[3,2-e][1,2,4]triazolo[1,5-a]pyrimidine]", "values": [{"measurement": "LD50", "setting": "[4]", "result": "≥ 300", "unit": "mg/kg"}]}
{"smiles": "Cc1nc2ncnn2c2c1CCN2Cc1ccc(Cl)cc1", "note": "[Compound 1-54, 8-(4-chlorobenzyl)-7,8-dihydro-5-methyl-6H-pyrrolo[3,2-e][1,2,4]triazolo[1,5-a]pyrimidine]", "values": [{"measurement": "LD50", "setting": "[4]", "result": "≥ 300", "unit": "mg/kg"}]}
{"smiles": "Cc1nc2ccnn2c2c1CCN2Cc1ccccc1", "note": "[Compound 2-2, 8-benzyl-7,8-dihydro-5-methyl-6H-pyrazolo[1,5-a]pyrrolo[3,2-e]pyrimidine]", "values": [{"measurement": "LD50", "setting": "[4]", "result": "≥ 300", "unit": "mg/kg"}]}
